US20090041760A1, “RETROVIRAL IMMUNOTHERAPY” (priority 2000, published 2009)
Like-named read-outs stand apart in the source and are kept apart here.

How the values were obtained:
[1] = test system: CD4+, CD8+ and CD25+CD4+ T cells of spleen; assay: FACS analysis of spleen cells following Vb therapy on day 14 post infection; assay type: in vivo, mice
Description: FACS analysis of CD4^+ and CD8^+ T cells prepared from spleens of mice treated with Vb on Day 14 pi was performed (FIG. 6). CD25^+CD4^+ T cells were also examined as they have recently been identified as having an important regulatory function in mouse models of autoimmune disease and tumour immunology (Takahashi et al., 1998; Shimizu et al., 1999). It is possible that these cells may play a role in the regulation of the immune response to MAIDS. Day 14 pi and uninfected control mice were given Vb therapy and the spleens collected at 48 hours post Vb treatment.

murine T cell lymphoma = conditions: cited from earlier work
MAIDS virus [2] = assay: Spleen cell transfer into MAIDS infected, day 14 Vb treated mice; assay type: in vivo
Excerpt: The experiments illustrated in FIG. 7 were designed to determine if a single dose of Vb, administered at 14 days pi, is eliminating a population of expanding CD4^+regulator T cells and thereby releasing effector cells from down-regulation and clearing the host of the MAIDS virus.
Mice were infected with MAIDS, received day 14 pi Vb treatment and then received an adoptive transfer of ~10^7 spleen cells from donor mice prepared as outlined in FIG. 7. For each experiment [designated (I), (II) and (III)] groups consisted of 7 recipient mice and 9 donor mice. Mice in Group I received whole spleens from infected mice that had not received any Vb treatment. Mice in Group II received whole spleen cell preparations, from infected mice, that had been depleted of CD4^+ cells using a FACS cell sorter after staining with fluorochrome-labeled anti-CD4 monoclonal antibody. […] Mice in Group III received whole spleens from infected donor mice that also received Vb treatment on day 14 pi.

[3] = test system: LP-BM5 murine leukemia virus (MuLV); assay: MAIDS development in LP-BM5 infected mice after a single dose of vinblastine at different times post infection; assay type: in vivo, C57BL/6 mice
Excerpt: A murine AIDS (MAIDS) pathology induced by LP-BM5 murine leukemia virus (MuLV) in susceptible mice is an effective tool to investigate mechanisms of retrovirus-induced immunodeficiency. […] Infection of a susceptible strain such as C57BL/6 mice with LP-BM5 leads to chronic splenomegaly, hypergammaglobulinaemia and development of immunodeficiency in both T and B cells. In vitro, there is a progressive impairment in the responsiveness of T-cells and B-cells to mitogenic or specific antigenic stimuli. In vivo, infected mice become increasingly susceptible to challenge with a variety of opportunistic organisms and can develop B-cell lymphoma. Deaths are first observed at 8-10 weeks post-infection (pi), and all mice die within 24 weeks (FIG. 1). These alterations in immune function reflect complex changes in the phenotype and function of all components of the immune network.
The treatment with a single dose of the anti-mitotic agent vinblastine (Vb) at different times pi is able to prevent the development/progression of MAIDS. […] Clearly, the Vb treatment is remarkably therapeutic when administered at 6 hr or 14 days pi with 100% ( 10/10) and 74% ( 20/27) of mice, respectively, showing no signs of MAIDS development at 10 weeks pi (as determined by spleen weight, histology and FACS analysis). […] Additional experiments have provided results of 100% of mice having no signs of MAIDS development at least 12 months after Vb treatment 14 days pi (data not shown). Although not as pronounced as the protection seen after day 14 treatment, moderate protection from MAIDS development was still observed. […] The total protection from MAIDS development seen in mice given Vb at 6 hrs pi is not unexpected as the virus replicates in actively replicating cells which are the target of the anti-mitotic drug thus any cells infected with the virus are killed by the Vb preventing the virus from rapidly establishing an infection in the host. However, the highly protective effect observed after a single treatment with Vb at 14 days pi is quite remarkable as, by this stage, the viral infection is well established and the early disease processes are well underway. We propose that this highly therapeutic effect is due to the Vb targeting a particular subset of immune regulator cells during their expansion phase and thereby altering the immune response to the viral infection. […] This leads to long term disease free survival for many months post-infection and treatment.
Spleens from the Day 14 pi Vb treated mice as well as infected and uninfected control mice were weighed and examined histologically. The splenic architecture of all MAIDS infected mice was profoundly disorganised as previously reported (Hartley et al., 1989).

MAIDS virus [4] = assay: Adoptive transfer of CD4+ CD25+/- cells into MAIDS infected, day 14 Vinblastine treated mice; assay type: in vivo; conditions: uninfected donor cells into MAIDS-infected day 14 Vb-treated recipients; n=5
Excerpt: An adoptive transfer experiment was designed to directly test the hypothesis that CD4+ CD25+ T cells are functioning as the regulator cells in the murine AIDS model. The same approach used to determine that the regulator cells are CD4+ T cells was used to test whether the CD4+ CD25+ subset are the target of day 14 Vinblastine treatment. […] 2.0×10^6 cells of the regulator CD4+ CD25+ phenotype were purified from single cell suspensions of donor spleens using MACS beads (Miltenyi Biotec) using two positive selection steps. The cells were then tested for purity by flow cytometry (both CD4+ CD25+ and CD4+ CD25− fractions were of >90% purity) and viability using trypan blue exclusion prior to transfer into uninfected (control) and MAIDS infected day 14 Vinblastine treated mice. CD4+ CD25− cells were also transferred to allow that the regulator cells may not present in the CD25+ fraction and also to allow for the possibility that these putative regulator cells may lose CD25 expression as they expand and become activated as was reported by Gavin et al., 2002.
Mice receiving adoptive transfer of cells were either uninfected (control) or MAIDS infected and day 14 Vinblastine treated to examine whether the transfer of cells would result in disease progression. […] Disease progression was assessed by spleen weight at 10 weeks post MAIDS infection.

MAIDS virus [5] = assay: Rechallenge with MAIDS virus following protective vinblastine therapy; assay type: in vivo, mice; conditions: Vb at day 14 pi, rechallenge at 3 or 8 weeks post Vb treatment
Excerpt: To determine if mice protected from MAIDS by the day 14 pi Vb treatment develop an immune response which would then protect them from a subsequent rechallenge with the MAIDS virus groups of mice, given the Vb therapy at day 14 pi, were rechallenged with the MAIDS virus at 3 or 8 weeks post Vb treatment. […] This is not an unexpected result as the dominant immunosuppression by the regulator population of cells would have been restored as a consequence of the immune effector response to the second (untreated) infection.

SMILES: CC[C@]1(O)C[C@@H]2CN(CCc3c([nH]c4ccccc34)[C@@](C(=O)OC)(c3cc4c(cc3OC)N(C)[C@H]3[C@@](O)(C(=O)OC)[C@H](OC(C)=O)[C@]5(CC)C=CCN6CC[C@]43[C@@H]65)C2)C1 [Vb, vinblastine]
- cell subsets targeted in MAIDS infected mice (uninfected to infected ratios) ([1]; CD4+ T cells and CD25+CD4+ T cells, 48 hours post Vb at day 14 pi): preferentially targeted
- effect on spleen cell subsets ([1]; spleens collected 48 hours post Vb, day 14 pi and uninfected mice): all cell subsets are reduced
- effect on tumour (murine T cell lymphoma; single dose at day 10 following tumour inoculation): enhancement
- effect on tumour (murine T cell lymphoma; single dose at days 4, 6, 13 and 15 following tumour inoculation): regression
- protection from MAIDS development after spleen cell transfer (MAIDS virus [2]; Group I: ~10^7 whole spleen cells from MAIDS infected donors without Vb): completely prevented Vb from protecting mice from MAIDS development
- protection from MAIDS development after spleen cell transfer (MAIDS virus [2]; Group II: donor spleen cells depleted of CD4+ cells by FACS sorting): the protective effect of Vb was not overcome
- protection from MAIDS development after spleen cell transfer (MAIDS virus [2]; Group III: spleen cells from infected donors also given day 14 Vb): fully protected from MAIDS development
- mice protected from any splenomegaly at 20 weeks pi ([3]; Vb at day 14 pi, 4/5 mice): 80%
- mice having no signs of MAIDS development at least 12 months after treatment ([3]; Vb treatment 14 days pi, additional experiments, data not shown): 100%
- splenic architecture (histology) at 10 weeks pi ([3]; day 14 pi Vb treated mice with normal spleen weights (below 0.25 g)): indistinguishable from that of uninfected control mice
- FACS analysis of spleen cells: cellular proportions (CD4+, CD8+ and B cells) and distributions at 10 weeks pi ([3]; day 14 pi Vb treated mice, preliminary, data not shown): like those observed in normal uninfected mice
- mice showing no signs of MAIDS development at 10 weeks pi (spleen weight, histology, FACS analysis) ([3]; single 6 mg/kg i.p. dose at 6 hr pi, 10/10 mice): 100%
- mice showing protective effect (no signs of MAIDS) at 10 weeks pi ([3]; single 6 mg/kg i.p. dose at 6 days pi, 6/13 mice): 46%
- mice showing no signs of MAIDS development at 10 weeks pi (spleen weight, histology, FACS analysis) ([3]; single 6 mg/kg i.p. dose at 14 days pi, 20/27 mice): 74%
- protection against MAIDS development ([3]; single 6 mg/kg i.p. dose at day 2 pi): no protection against MAIDS development
- protection against MAIDS development ([3]; single 6 mg/kg i.p. dose at day 7 pi): no protection against MAIDS development
- disease progression (spleen weight at 10 weeks post MAIDS infection) after transfer of CD4+ CD25+/- cells (MAIDS virus [4]): disease progression was readily apparent
- protection from viral rechallenge (splenomegaly, lymphadenopathy at 20 weeks) (MAIDS virus [5]): not protected from viral rechallenge
